Values quoted from earlier work as cited in patent US6045829A, “Nanocrystalline formulations of human immunodeficiency virus (HIV) protease inhibitors using cellulosic surface stabilizers” (Elan Pharma International Limited, priority 1997, dated 2000).
Where two headings read alike, the source gives them in different places. Each block holds one compound with its values, some of them ahead of it.

What was measured:
[1] = tested on: HIV reverse transcriptase (RT); details: for effectiveness in treating HIV infection: in vivo; for side effects: interfere with cellular enzymes similar to the HIV viral enzyme

- oral bioavailability (in vivo, po): low oral bioavailability
SMILES: Cc1c(O)cccc1C(=O)N[C@@H](CSc1ccccc1)[C@H](O)CN1C[C@H]2CCCC[C@H]2C[C@H]1C(=O)NC(C)(C)C [AG1343]

SMILES: O[C@H](CS)[C@H](O)CS (racemic) [ddT, dithiothreitol]
- effectiveness in treating HIV infection [1]: only modestly effective
- side effects [1]: severe side effects

- oral bioavailability (in vivo, po): low oral bioavailability
SMILES: CC(C)(C)NC(=O)[C@@H]1CN(Cc2cccnc2)CCN1C[C@@H](O)C[C@@H](Cc1ccccc1)C(=O)N[C@H]1c2ccccc2C[C@H]1O [MK-639, N-(2-(R)-hydroxy-1(S)-indanyl)-2(R)-phenylmethyl-4-(S)-hydroxy-5-(1-(4-(3-pyridylmethyl)-2(S)-N'-(t-butylcarboxamido)-piperazinyl))-pentaneamide]

- oral bioavailability (in vivo, po): low oral bioavailability
SMILES: CC(C)(C)NC(=O)[C@@H]1C[C@@H]2CCCC[C@@H]2CN1C[C@@H](O)[C@H](Cc1ccccc1)NC(=O)[C@H](CC(N)=O)NC(=O)c1ccc2ccccc2n1 [saquinavir]

SMILES: O=c1[nH]cnc2c1ncn2[C@H]1CC[C@@H](CO)O1 [ddI, didanosine]
- effectiveness in treating HIV infection [1]: only modestly effective
- side effects [1]: severe side effects

- oral bioavailability (in vivo, po): low oral bioavailability
SMILES: CC(C)CN(C[C@@H](O)[C@H](Cc1ccccc1)NC(=O)O[C@H]1CCOC1)S(=O)(=O)c1ccc(N)cc1 [VX-478]

- oral bioavailability (in vivo, po): low oral bioavailability
SMILES: CC(C)c1nc(CN(C)C(=O)N[C@H](C(=O)N[C@@H](Cc2ccccc2)C[C@H](O)[C@H](Cc2ccccc2)NC(=O)OCc2cncs2)C(C)C)cs1 [ABT-538]

SMILES: CSC[C@H](NC(=O)COc1cccc2cnccc12)C(=O)N[C@@H](Cc1ccccc1)[C@H](O)C(=O)N1CSC[C@H]1C(=O)NC(C)(C)C [KNI-272]
- oral bioavailability (oral): low oral bioavailability

SMILES: Cc1cn([C@H]2C[C@H](N=[N+]=[N-])[C@@H](CO)O2)c(=O)[nH]c1=O [AZT, azidothymidine]
- side effects [1]: severe side effects

- oral bioavailability (in vivo, po): low oral bioavailability
SMILES: Nc1cccc(CN2C(=O)N(Cc3cccc(N)c3)[C@H](Cc3ccccc3)[C@H](O)[C@@H](O)[C@H]2Cc2ccccc2)c1 [DMP-450]

SMILES: N#Cc1ccc(S(=O)(=O)Nc2cccc(C(c3c(O)c4c(oc3=O)CCCCCC4)C3CC3)c2)cc1 (stereo not shown) [U-103,017]
- oral bioavailability (oral): low oral bioavailability
